{
  "source": "patent US20250257034A1",
  "about": "“INDOLE DERIVATIVES AS SEROTONERGIC AGENTS USEFUL FOR THE TREATMENT OF DISORDERS RELATED THERETO” (priority 2023, published 2025)",
  "key": {"[1]": {"experiment": "Pharmacokinetic studies in rat (i.v.)", "assay_type": "in vivo", "conditions": "rat plasma; for Apparent t1/2 / half-life: estimated from 2 points only; for concentration at 0.25 h / concentration at 1 h / concentration at 4 h / half-life / AUC(0-t): male, Sprague-Dawley, rat, plasma, iv; for concentration at 0.25 h / concentration at 1 h / concentration at 4 h: read-out: Plasma concentration; for half-life: read-out: Apparent t1/2 (converted); for AUC(0-t): read-out: AUC0-tlast", "procedure,_shortened": "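Male Sprague-Dawley rats (~225-350 g) received compounds intravenously via tail vein in 5% Tween-80 in saline. Saphenous blood was sampled at 0.25, 1 and 4 h and analysed by LC-MS/MS. t1/2 and AUC0-tlast came from non-compartmental analysis using the linear up/log down trapezoidal rule.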"}, "[2]": {"experiment": "Human liver microsomes stability", "assay_type": "in vitro ADME", "conditions": "Human liver microsomes; for half-life at 2 μM / microsomal CLint at 2 μM: 2 μM compound, 0.5 mg/mL microsomes, 1 mM NADPH; for half-life at 2 μM: 37° C; for microsomal CLint at 2 μM: read-out: CLint (μL/min/mg protein); for CLint scaled at 2 μM: read-out: Scaled-up CLint", "procedure,_shortened": "(§1)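 In this assay, 2 μM compound is incubated with NADPH-supplemented liver microsomes (human pooled; male rat; male mouse) at 37° C for up to 60 min. Depletion is followed by LC-MS/MS, and CLint is expressed per mg microsomal protein.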"}, "[3]": {"experiment": "Rat liver microsomes stability", "assay_type": "in vitro ADME", "conditions": "Rat liver microsomes; for microsomal CLint at 2 μM / half-life at 2 μM / CLint scaled at 2 μM: male; for microsomal CLint at 2 μM: rat, liver microsomes, read-out: CLint (μL/min/mg protein); for microsomal CLint at 2 μM / half-life at 2 μM: 2 μM compound, 0.5 mg/mL microsomes, 1 mM NADPH; for half-life at 2 μM: 37° C; for CLint scaled at 2 μM: read-out: Scaled-up CLint", "procedure,_shortened": "as §1"}, "[4]": {"experiment": "Mouse liver microsomes stability", "assay_type": "in vitro ADME", "conditions": "Mouse liver microsomes; for microsomal CLint at 2 μM / half-life at 2 μM / CLint scaled at 2 μM: male; for microsomal CLint at 2 μM: mouse, liver microsomes, read-out: CLint (μL/min/mg protein); for microsomal CLint at 2 μM / half-life at 2 μM: 2 μM compound, 0.5 mg/mL microsomes, 1 mM NADPH; for half-life at 2 μM: 37° C; for CLint scaled at 2 μM: read-out: Scaled-up CLint"}, "[5]": {"conditions": "I-17 1.33 mg/kg i.v., individual rats R07-R09, 1.33 mg/kg"}, "[6]": {"conditions": "1.33 mg/kg, I-17 1.33 mg/kg i.v., Mean ± SD"}, "[7]": {"conditions": "1.33 mg/kg, I-17 1.33 mg/kg i.v., individual rats R07-R09"}, "[8]": {"conditions": "I-13 1.14 mg/kg i.v., individual rats R04-R06, 1.14 mg/kg"}, "[9]": {"conditions": "1.14 mg/kg, I-13 1.14 mg/kg i.v., individual rats R04-R06"}},
  "note": "Values joined by “and” are separate entries in the source; they are usually repeats but may differ in a detail not shown here. Equal values may be shown once. Read-outs that look alike come from different tables or passages of the source.",
  "data": [
    {"smiles": "CSc1ccc2[nH]cc(CCN(C(C)C)C(C)C)c2c1", "note": "[Compound I-17, N-Isopropyl-N-(2-(5-(methylthio)-1H-indol-3-yl)ethyl)propan-2-amine]", "values": [
      {"measurement": "Plasma concentration", "setting": "[1]; I-17 1.33 mg/kg i.v., 0.25 h, individual rats R07-R09, 1.33 mg/kg", "result": "197 ng/mL and 259 ng/mL"},
      {"measurement": "Plasma concentration", "setting": "[1]; I-17 1.33 mg/kg i.v., 1 h, individual rats R07-R09, 1.33 mg/kg", "result": "89.3 ng/mL and 120 ng/mL"},
      {"measurement": "Plasma concentration", "setting": "[1]; I-17 1.33 mg/kg i.v., 4 h, individual rats R07-R09, 1.33 mg/kg", "result": "17.7 ng/mL and 15.6 ng/mL"},
      {"measurement": "AUC0-tlast", "setting": "[1]; [5]", "result": 363, "unit": "ng·h/mL"},
      {"measurement": "Apparent t1/2", "setting": "[1]; [5]", "result": "67.8 min and 57 min"},
      {"measurement": "concentration at 0.25 h", "setting": "[1]; 1.33 mg/kg, I-17 1.33 mg/kg i.v., 0.25 h, Mean ± SD", "result": "198 ± 60", "unit": "ng/mL"},
      {"measurement": "concentration at 0.25 h", "setting": "[1]; 1.33 mg/kg, I-17 1.33 mg/kg i.v., 0.25 h, individual rats R07-R09", "result": 139, "unit": "ng/mL"},
      {"measurement": "concentration at 1 h", "setting": "[1]; 1.33 mg/kg, I-17 1.33 mg/kg i.v., 1 h, Mean ± SD", "result": "103 ± 15.5", "unit": "ng/mL"},
      {"measurement": "concentration at 1 h", "setting": "[1]; 1.33 mg/kg, I-17 1.33 mg/kg i.v., 1 h, individual rats R07-R09", "result": 101, "unit": "ng/mL"},
      {"measurement": "concentration at 4 h", "setting": "[1]; 1.33 mg/kg, I-17 1.33 mg/kg i.v., 4 h, Mean ± SD", "result": "19.7 ± 5.39", "unit": "ng/mL"},
      {"measurement": "concentration at 4 h", "setting": "[1]; 1.33 mg/kg, I-17 1.33 mg/kg i.v., 4 h, individual rats R07-R09", "result": 25.8, "unit": "ng/mL"},
      {"measurement": "half-life", "setting": "[1]; [6]", "result": "72.6 ± 18.1", "unit": "min"},
      {"measurement": "AUC(0-t)", "setting": "[1]; [6]", "result": "315 ± 41.4", "unit": "ng·h/mL"},
      {"measurement": "half-life", "setting": "[1]; [7]", "result": 92.4, "unit": "min"},
      {"measurement": "AUC(0-t)", "setting": "[1]; [7]", "result": 291, "unit": "ng·h/mL"},
      {"measurement": "Predicted hepatic CL", "setting": "[2]", "result": 19.11, "unit": "mL/min/kg"},
      {"measurement": "half-life at 2 μM", "setting": "[2]", "result": 6.99, "unit": "min"},
      {"measurement": "microsomal CLint at 2 μM", "setting": "[2]", "result": 198, "unit": "µL/min/mg"},
      {"measurement": "CLint scaled at 2 μM", "setting": "[2]", "result": 249, "unit": "mL/min/kg"},
      {"measurement": "Predicted hepatic CL", "setting": "[3]", "result": 30.01, "unit": "mL/min/kg"},
      {"measurement": "microsomal CLint at 2 μM", "setting": "[3]", "result": 36.7, "unit": "µL/min/mg"},
      {"measurement": "half-life at 2 μM", "setting": "[3]", "result": 37.8, "unit": "min"},
      {"measurement": "CLint scaled at 2 μM", "setting": "[3]", "result": 65.8, "unit": "mL/min/kg"},
      {"measurement": "Predicted hepatic CL", "setting": "[4]", "result": ">84.35", "unit": "mL/min/kg"},
      {"measurement": "microsomal CLint at 2 μM", "setting": "[4]", "result": "> 307", "unit": "µL/min/mg"},
      {"measurement": "half-life at 2 μM", "setting": "[4]", "result": "< 4.51", "unit": "min"},
      {"measurement": "CLint scaled at 2 μM", "setting": "[4]", "result": "> 1340", "unit": "mL/min/kg"}
    ]},
    {"smiles": "CCN(C)CCc1c[nH]c2ccc(SC)cc12", "note": "[Compound I-13, N-Ethyl-N-methyl-2-(5-(methylthio)-1H-indol-3-yl)ethan-1-amine]", "values": [
      {"measurement": "Plasma concentration", "setting": "[1]; I-13 1.14 mg/kg i.v., 0.25 h, individual rats R04-R06, 1.14 mg/kg", "result": "45.7 ng/mL and 86.5 ng/mL and 113 ng/mL"},
      {"measurement": "Plasma concentration", "setting": "[1]; I-13 1.14 mg/kg i.v., 1 h, individual rats R04-R06, 1.14 mg/kg", "result": "46.7 ng/mL and 29.7 ng/mL"},
      {"measurement": "Plasma concentration", "setting": "[1]; I-13 1.14 mg/kg i.v., 4 h, individual rats R04-R06, 1.14 mg/kg", "result": "3.51 ng/mL and 1.11 ng/mL and 0.449 ng/mL"},
      {"measurement": "AUC0-tlast", "setting": "[1]; [8]", "result": "109 ng·h/mL and 103 ng·h/mL"},
      {"measurement": "Apparent t1/2", "setting": "[1]; [8]", "result": 28.6, "unit": "min"},
      {"measurement": "concentration at 0.25 h", "setting": "[1]; 1.14 mg/kg, I-13 1.14 mg/kg i.v., 0.25 h, Mean ± SD", "result": "81.7 ± 33.9", "unit": "ng/mL"},
      {"measurement": "concentration at 1 h", "setting": "[1]; 1.14 mg/kg, I-13 1.14 mg/kg i.v., 1 h, Mean ± SD", "result": "42.9 ± 11.7", "unit": "ng/mL"},
      {"measurement": "concentration at 1 h", "setting": "[1]; 1.14 mg/kg, I-13 1.14 mg/kg i.v., 1 h, individual rats R04-R06", "result": 52.2, "unit": "ng/mL"},
      {"measurement": "concentration at 4 h", "setting": "[1]; 1.14 mg/kg, I-13 1.14 mg/kg i.v., 4 h, Mean ± SD", "result": "1.69 ± 1.61", "unit": "ng/mL"},
      {"measurement": "AUC(0-t)", "setting": "[1]; 1.14 mg/kg, I-13 1.14 mg/kg i.v., Mean ± SD", "result": "105 ± 3.64", "unit": "ng·h/mL"},
      {"measurement": "half-life", "setting": "[1]; [9]", "result": 35.1, "unit": "min"},
      {"measurement": "AUC(0-t)", "setting": "[1]; [9]", "result": 102, "unit": "ng·h/mL"},
      {"measurement": "half-life", "setting": "[1]; 1.14 mg/kg, I-13 1.14 mg/kg i.v., mean (n = 2)", "result": 31.9, "unit": "min"},
      {"measurement": "Predicted hepatic CL", "setting": "[2]", "result": 18.16, "unit": "mL/min/kg"},
      {"measurement": "half-life at 2 μM", "setting": "[2]", "result": 11.7, "unit": "min"},
      {"measurement": "microsomal CLint at 2 μM", "setting": "[2]", "result": 118, "unit": "µL/min/mg"},
      {"measurement": "CLint scaled at 2 μM", "setting": "[2]", "result": 148, "unit": "mL/min/kg"},
      {"measurement": "Predicted hepatic CL", "setting": "[3]", "result": 42.35, "unit": "mL/min/kg"},
      {"measurement": "microsomal CLint at 2 μM", "setting": "[3]", "result": 102, "unit": "µL/min/mg"},
      {"measurement": "half-life at 2 μM", "setting": "[3]", "result": 13.7, "unit": "min"},
      {"measurement": "CLint scaled at 2 μM", "setting": "[3]", "result": 182, "unit": "mL/min/kg"},
      {"measurement": "Predicted hepatic CL", "setting": "[4]", "result": ">84.35", "unit": "mL/min/kg"},
      {"measurement": "microsomal CLint at 2 μM", "setting": "[4]", "result": "> 307", "unit": "µL/min/mg"},
      {"measurement": "half-life at 2 μM", "setting": "[4]", "result": "< 4.51", "unit": "min"},
      {"measurement": "CLint scaled at 2 μM", "setting": "[4]", "result": "> 1340", "unit": "mL/min/kg"}
    ]}
  ]
}
